{"source": "BindingDB's records for doi:10.1021/jm401292m", "about": "(Mcgill University, 2014)", "assay": "Antagonist activity at OXE receptor (unknown origin) expressed in neutrophils assessed as inhibition of 5-oxo-ETE-induced cell migration after 2 hrs by hematoxylin/chromotrope 2R staining-based microscopic analysis", "data": [{"smiles": "CCCCCCc1c(C(=O)CC(C)CC(=O)O)c2cc(Cl)ccc2n1C", "note": "(stereo unspecified)", "values": [{"measurement": "IC50", "result": 454, "unit": "nM"}]}]}
